For the compound `COC[C@@H]1CN(CCN2CCN(C(=O)c3cc(C(F)(F)F)cc(C(F)(F)F)c3)[C@H](Cc3ccc(F)cc3)C2)CCO1.Cl.Cl`, the melting point lay in the range of 129 to 133 °C.

Consider `Cl.Cn1cc(CN2CCN(C(=O)c3cc(C(F)(F)F)cc(C(F)(F)F)c3)[C@H](Cc3ccc(Cl)cc3)C2)cn1`, for which the melting point is 210 to 245 °C (dec.).

In turn, `COc1cc(C(=O)N2CCN(CCCc3cccnc3)C[C@H]2Cc2ccc(Cl)cc2)cc(C(F)(F)F)c1.Cl.Cl` registered a melting point of 60 to 100 °C.

`COc1cc(C(=O)N2CCN(Cc3cccnc3)C[C@H]2Cc2ccc(F)cc2)cc(C(F)(F)F)c1.Cl.Cl` came in with a melting point of 81.4 to 84.3 °C.

Regarding `Cl.Cn1cc(CN2CCN(C(=O)c3cc(C(F)(F)F)cc(C(F)(F)F)c3)[C@H](Cc3ccc(Cl)c(O)c3)C2)cn1`, the melting point is 159 to 163 °C.

Take `COc1cc(C(=O)N2CCN(Cc3cnn(C)c3)C[C@H]2Cc2ccc(C(F)(F)F)cc2)cc(C(F)(F)F)c1.Cl`: the melting point was in the range of 218 to 223 °C.

For `CNc1cc(C(=O)N2CCN(CCN3CCO[C@H](COC)C3)C[C@H]2Cc2ccc(C)c(O)c2)cc(C(F)(F)F)c1.Cl.Cl`, the melting point is 159 to 170 °C.

Turning to `COC[C@@H]1CN(CCN2CCN(C(=O)c3cc(-n4cccc4)cc(C(F)(F)F)c3)[C@H](Cc3ccc(C)c(O)c3)C2)CCO1.Cl.Cl`, the melting point was in the range of 159 to 170 °C.

Take `Cc1ccc(C[C@@H]2CN(CCN3[C@H](C)COC[C@@H]3C)CCN2C(=O)c2cc(C(F)(F)F)cc(C(F)(F)F)c2)cc1O.Cl.Cl`: the melting point fell in the range of 210 to 220 °C.

The compound `Cc1ccc(C[C@@H]2CN(CCc3cccnc3)CCN2C(=O)c2cc(C(F)(F)F)cc(C(F)(F)F)c2)cc1O.Cl.Cl` yielded a melting point of 90 to 120 °C.

`COC[C@@H]1CN(CC#CCN2CCN(C(=O)c3cc(C(F)(F)F)cc(C(F)(F)F)c3)C(Cc3ccc(C)c(O)c3)C2)[C@@H](C)CO1.Cl.Cl` (stereo partly shown) had a melting point of 110 to 135 °C.

Turning to `C[C@@H]1CN(CCN2CCN(C(=O)c3cc([N+](=O)[O-])cc(C(F)(F)F)c3)[C@H](Cc3ccc(Cl)cc3)C2)C[C@H](C)O1.Cl.Cl`, the melting point fell in the range of 133.3 to 136.2 °C.

In turn, `C[C@@H]1CN(CCN2CCN(C(=O)c3cc(N(C)C)cc(C(F)(F)F)c3)[C@H](Cc3ccc(Cl)cc3)C2)C[C@H](C)O1.Cl.Cl` returned a melting point of 148.2 to 153.3 °C.

As to `C[C@@H]1CN(CCN2CCN(C(=O)c3cc(C(F)(F)F)cc(S(C)(=O)=O)c3)[C@H](Cc3ccc(Cl)cc3)C2)C[C@H](C)O1.Cl.Cl`, the melting point lay in the range of 138.4 to 142.5 °C.

The compound `CS(=O)(=O)c1cc(C(=O)N2CCN(CCN3CCc4ncccc4C3)C[C@H]2Cc2ccc(Cl)cc2)cc(C(F)(F)F)c1.Cl.Cl.Cl` registered a melting point of 198 to 213 °C.

Take `Cl.Cl.Cl.O=C(c1cc(-n2cccc2)cc(C(F)(F)F)c1)N1CCN(CCN2CCc3ncccc3C2)C[C@H]1Cc1ccc(Cl)cc1`: the melting point is 184 to 191 °C.

With `COC[C@@H]1CN(CCN2CCN(C(=O)c3cc(C(F)(F)F)cc(C(F)(F)F)c3)C(Cc3ccc(C)c(O)c3)C2)C(C)(C)CO1.Cl.Cl` (stereo partly shown), the melting point lay in the range of 150 to 180 °C.

With `Cc1ccc(C[C@@H]2CN(Cc3nc(N)no3)CCN2C(=O)c2cc(C(F)(F)F)cc(C(F)(F)F)c2)cc1O.Cl.Cl`, the melting point was in the range of 160 to 170 °C.

`COc1cc(C[C@@H]2CN(CCN3CC4CCC(C3)O4)CCN2C(=O)c2cc(C(F)(F)F)cc(C(F)(F)F)c2)ccc1F.Cl.Cl` displayed a melting point of 163 to 178 °C.

`CC1(C)CN(CCN2CCN(C(=O)c3cc(C(F)(F)F)cc(C(F)(F)F)c3)[C@H](Cc3ccc(C(F)(F)F)cc3)C2)CCO1.Cl.Cl` showed a melting point of 215 to 231 °C.

As to `COc1cc(C[C@@H]2CN(CCN3C[C@H](OC)[C@@H](OC)C3)CCN2C(=O)c2cc(C(F)(F)F)cc(C(F)(F)F)c2)ccc1F.Cl.Cl`, the melting point fell in the range of 112 to 120 °C.

The compound `COC[C@@H]1CN(CCN2CCN(C(=O)c3cc(C(F)(F)F)cc(C(F)(F)F)c3)[C@H](Cc3ccc(OC)cc3)C2)CCO1.Cl.Cl` had a melting point of 146 to 149 °C.

The compound `COC[C@@H]1C[C@@H](OC)CN1CCN1CCN(C(=O)c2cc(C(F)(F)F)cc(C(F)(F)F)c2)[C@H](Cc2ccc(C(F)(F)F)cc2)C1.Cl.Cl` displayed a melting point of 56.59 °C.

The compound `COC[C@H]1CCC[C@@H](COC)N1CCN1CCN(C(=O)c2cc(C(F)(F)F)cc(C(F)(F)F)c2)[C@H](Cc2ccc(C(F)(F)F)cc2)C1.Cl.Cl` displayed a melting point of 147 to 151 °C.

As to `CSc1cc(C(=O)N2CCN(CCN3CCc4ncccc4C3)C[C@H]2Cc2ccc(C(F)(F)F)cc2)cc(C(F)(F)F)c1.Cl.Cl`, the melting point fell in the range of 190 to 210 °C.

The compound `COc1cc(C[C@@H]2CN(CCN3C[C@@H](C)O[C@@H](C)C3)CCN2C(=O)c2cc(-c3ccncc3)cc(C(F)(F)F)c2)ccc1F.Cl.Cl.Cl` gave a melting point of 137.6 to 142.5 °C.

On to `COC[C@@H]1CN(CCN2CCN(C(=O)c3cc(F)cc(C(F)(F)F)c3)[C@H](Cc3ccc(Cl)cc3)C2)CCO1.Cl.Cl`, for which the melting point lay within 199 to 204 °C.

Regarding `COC[C@@H]1CN(CCN2CCN(C(=O)c3cc(F)cc(C(F)(F)F)c3)[C@H](Cc3ccc(C(F)(F)F)cc3)C2)CCO1.Cl.Cl`, the melting point was in the range of 173 to 176 °C.

As to `COC[C@@H]1CN(CCN2CCN(C(=O)c3cc(F)cc(C(F)(F)F)c3)[C@H](Cc3ccc(Cl)c(O)c3)C2)CCO1.Cl.Cl`, the melting point lay in the range of 176 to 178 °C.

With `COc1cc(C(=O)N2CCN(CCN3CCc4ncccc4C3)C[C@H]2Cc2ccc(Cl)c(O)c2)cc(C(F)(F)F)c1.Cl.Cl.Cl`, the melting point was 225 to 240 °C (dec.).

Compound `COC[C@@H]1CN(CCN2CCN(C(=O)c3cc(C(F)(F)F)cc(C(F)(F)F)c3)[C@H](Cc3ccc(Cl)c(O)c3)C2)CCO1.Cl.Cl` displayed a melting point of 160 to 169 °C.

For `COc1cc(C[C@@H]2CN(CCN3CCC(F)(F)CC3)CCN2C(=O)c2cc(C(F)(F)F)cc(C(F)(F)F)c2)ccc1F.Cl.Cl`, the melting point is 240 to 243 °C.

As for `COc1cc(C[C@@H]2CN(CCN3C[C@@H](C)O[C@@H](C)C3)CCN2C(=O)c2cc(C(F)(F)F)cc(C(F)(F)F)c2)ccc1C(F)(F)F.Cl.Cl`, the melting point was 160 to 170 °C.

As to `COc1cc(C(=O)N2CCN(CCN3C[C@@H](C)O[C@@H](C)C3)C[C@H]2Cc2ccc(C(F)(F)F)c(OC)c2)cc(C(F)(F)F)c1.Cl.Cl`, the melting point lay within 125 to 135 °C.

Compound `COc1cc(C(=O)N2CCN(CCN3CCc4ncccc4C3)C[C@H]2Cc2ccc(C(F)(F)F)c(OC)c2)cc(C(F)(F)F)c1.Cl.Cl.Cl` came in with a melting point of 190 to 200 °C.

Compound `Cl.Cl.O=C(c1cc(C(F)(F)F)cc(C(F)(F)F)c1)N1CCN(CCN2CCC(F)(F)CC2)C[C@H]1Cc1ccc(Cl)cc1` yielded a melting point of 250 to 255 °C.

For the compound `COc1cc(C(=O)N2CCN(CC#CCN3CCOCC3(C)C)C[C@H]2Cc2ccc(Cl)cc2)cc(C(F)(F)F)c1.Cl.Cl`, the melting point is 110 to 140 °C.

`COc1cc(C(=O)N2CCN(CCN3CCC(F)(F)CC3)C[C@H]2Cc2ccc(Cl)cc2)cc(C(F)(F)F)c1.Cl.Cl`: the melting point lay in the range of 220 to 250 °C.

In turn, `COc1cc(C(=O)N2CCN(CCN3CCC(F)(F)CC3)C[C@H]2Cc2ccc(F)cc2)cc(C(F)(F)F)c1.Cl.Cl` showed a melting point of 258.4 to 261.4 °C.

The compound `COc1cc(C(=O)N2CCN(CCN3CCc4ncccc4C3)C[C@H]2Cc2ccc(F)cc2)cc(C(F)(F)F)c1.Cl.Cl.Cl` gave a melting point of 148.7 to 152.3 °C.

Source of the values: US7166598B2, “Piperazine derivatives” (Astellas Pharma Inc., priority 1998, dated 2007).
